Measurements taken from ChEMBL document CHEMBL4196074, “Metallomics for Alzheimer's disease treatment: Use of new generation of chelators combining metal-cation binding and transport properties” (Eur J Med Chem, 2018).
Activity calls are given as the source filed them. Unless noted, the rule behind the calls is not given here.

Experiments:
[1] = Metal chelating activity assessed as compound-Zn2+ complex formation by UV-vis spectrophotometric analysis
SH-SY5Y [2] = test: Inhibition of Zn2+-mediated amyloid beta (1 to 42 residues) production in human SH-SY5Y cells expressing APPswe mutant at 1 uM after 72 hrs by ELISA based spectrophotometric analysis; format: cell-based
SH-SY5Y [3] = test: Inhibition of Cu2+-mediated ROS generation in human SH-SY5Y cells expressing APPswe mutant at 1 uM after 72 hrs by DCF-DA dye-based fluorescence spectroscopic analysis; format: cell-based
SH-SY5Y [4] = test: Inhibition of Zn2+-mediated ROS generation in human SH-SY5Y cells expressing APPswe mutant at 1 uM after 72 hrs by DCF-DA dye-based fluorescence spectroscopic analysis; format: cell-based
[5] = target: Acetylcholinesterase (Homo sapiens) (UniProt P22303); test: Inhibition of acetylcholinesterase (unknown origin) at 1 uM using acetylthiocholine chloride as substrate measured for 5 to 40 mins
Chain of Acetylcholinesterase (Homo sapiens) (P22303 whole entry, the tested form may be a part): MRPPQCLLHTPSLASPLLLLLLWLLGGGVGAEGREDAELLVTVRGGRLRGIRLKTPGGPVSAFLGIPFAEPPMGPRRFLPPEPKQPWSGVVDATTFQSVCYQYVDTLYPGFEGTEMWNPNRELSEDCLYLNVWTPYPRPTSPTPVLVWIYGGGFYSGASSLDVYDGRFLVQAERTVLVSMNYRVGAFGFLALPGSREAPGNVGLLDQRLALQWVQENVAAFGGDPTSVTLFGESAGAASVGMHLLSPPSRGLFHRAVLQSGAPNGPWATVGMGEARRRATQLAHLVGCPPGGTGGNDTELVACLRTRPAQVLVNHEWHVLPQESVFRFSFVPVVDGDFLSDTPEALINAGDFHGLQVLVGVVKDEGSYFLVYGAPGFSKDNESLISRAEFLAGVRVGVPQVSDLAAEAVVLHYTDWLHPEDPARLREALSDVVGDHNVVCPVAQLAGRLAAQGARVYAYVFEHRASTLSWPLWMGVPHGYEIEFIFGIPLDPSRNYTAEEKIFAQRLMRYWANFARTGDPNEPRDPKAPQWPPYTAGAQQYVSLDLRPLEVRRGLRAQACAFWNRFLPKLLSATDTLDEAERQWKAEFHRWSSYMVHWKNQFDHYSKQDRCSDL

SH-SY5Y [6] = test: Inhibition of Fe3+-mediated amyloid beta (1 to 42 residues) production in human SH-SY5Y cells expressing APPswe mutant at 1 uM after 72 hrs by ELISA based spectrophotometric analysis; format: cell-based
SH-SY5Y [7] = test: Effect on morphological changes in human SH-SY5Y cells expressing APPswe mutant assessed as decrease in adherent cell number at 1 uM after 72 hrs; format: ADME, cell-based
SH-SY5Y [8] = test: Neuroprotective activity against amyloid beta (1 to 42 residues) induced cell death in human SH-SY5Y cells expressing APPswe mutant at 1 uM after 48 hrs by WST1 assay; format: functional, cell-based
[9] = Metal chelating activity assessed as compound-Fe3+ complex formation by UV-vis spectrophotometric analysis
SH-SY5Y [10] = test: Effect on morphological changes in human SH-SY5Y cells expressing APPswe mutant assessed as alteration of cell shape at 1 uM after 72 hrs; format: ADME, cell-based
SH-SY5Y [11] = test: Inhibition of Cu2+-mediated amyloid beta (1 to 42 residues) production in human SH-SY5Y cells expressing APPswe mutant at 1 uM after 72 hrs by ELISA based spectrophotometric analysis; format: cell-based
SH-SY5Y [12] = test: Inhibition of Fe3+-mediated ROS generation in human SH-SY5Y cells expressing APPswe mutant at 1 uM after 72 hrs by DCF-DA dye-based fluorescence spectroscopic analysis; format: cell-based
[13] = Metal chelating activity assessed as compound-Cu2+ complex formation by UV-vis spectrophotometric analysis
SH-SY5Y [14] = test: Antiproliferative activity against human SH-SY5Y cells at 1 uM after 24 to 72 hrs by WST1 assay; format: cell-based
SH-SY5Y [15] = test: Inhibition of Fe3+-induced toxicity in human SH-SY5Y cells expressing APPswe mutant assessed as increase in cell viability at 1 uM after 72 hrs by WST1 assay; format: cell-based
SH-SY5Y [16] = test: Inhibition of Fe3+-induced caspase-3 activity in human SH-SY5Y cells expressing APPswe mutant at 1 uM after 72 hrs by AcDEVD substrate-based spectrophotometric analysis; format: cell-based
SH-SY5Y [17] = test: Inhibition of Cu2+-induced toxicity in human SH-SY5Y cells expressing APPswe mutant assessed as increase in cell viability at 1 uM after 72 hrs by WST1 assay; format: cell-based
SH-SY5Y [18] = test: Inhibition of Cu2+-induced caspase-3 activity in human SH-SY5Y cells expressing APPswe mutant at 1 uM after 72 hrs by AcDEVD substrate-based spectrophotometric analysis; format: cell-based
[19] = Effective permeability of the compound at 10^-5 mol/L after 5 hrs by UV-based PAMPA; format: ADME; settings: read-out: Peff
SH-SY5Y [20] = test: Inhibition of Zn2+-induced toxicity in human SH-SY5Y cells expressing APPswe mutant assessed as increase in cell viability at 1 uM after 72 hrs by WST1 assay; format: cell-based
SH-SY5Y [21] = test: Inhibition of Zn2+-induced caspase-3 activity in human SH-SY5Y cells expressing APPswe mutant at 1 uM after 72 hrs by AcDEVD substrate-based spectrophotometric analysis; format: cell-based
[22] = Effective permeability of the compound at pH 7.4 at 200 uM after 4 hrs by PAMPA-BBB assay; format: ADME; settings: read-out: Peff

Compound | Activity [1] | inhibition (SH-SY5Y [3]) | inhibition [5] | inhibition (SH-SY5Y [6]) | Activity (SH-SY5Y [8]) | Activity [9] | inhibition (SH-SY5Y [11]) | inhibition (SH-SY5Y [12]) | Activity [13] | Activity (SH-SY5Y [14]) | inhibition (SH-SY5Y [15]) | inhibition (SH-SY5Y [16]) | inhibition (SH-SY5Y [17]) | inhibition (SH-SY5Y [18]) | also measured
CCN1/C(=C/c2c(NN=C(c3ccccn3)c3ccccn3)c(=O)c2=O)Sc2ccccc21 | Active | Active | inactive | Active | inactive | Active | Active | Active | Active | Non-Toxic |  |  |  |  | inhibition (SH-SY5Y [2]): Active; inhibition (SH-SY5Y [4]): Active; Activity (SH-SY5Y [7]): Toxic; Activity (SH-SY5Y [10]): Toxic
C[C@H](CCC(=O)N/N=C/c1ccc(C(C)(C)C)cc1O)[C@H]1CC[C@H]2[C@@H]3[C@H](O)C[C@@H]4C[C@H](O)CC[C@]4(C)[C@H]3C[C@H](O)[C@]12C | inactive | Active | inactive | inactive | Active | Active | inactive | Active | Active | Non-Toxic | Active | Active | Active | Active | 
Cc1ncc(CO)c(/C=N/NC(=O)CC[C@@H](C)[C@H]2CC[C@H]3[C@@H]4[C@H](O)C[C@@H]5C[C@H](O)CC[C@]5(C)[C@H]4C[C@H](O)[C@]23C)c1O | Active | Active | inactive | inactive | Active | Active | inactive | Active | Active | Non-Toxic | Active | Active | Active | Active | inhibition (SH-SY5Y [2]): inactive; Papp at 5 h, 10 µM [19]: 7.5 ×10⁻⁶ cm/s; inhibition (SH-SY5Y [4]): Active; inhibition (SH-SY5Y [20]): Active; inhibition (SH-SY5Y [21]): Active
CC(C)NCC(O)COc1cccc2ccccc12 (stereo unspecified) [PROPRANOLOL] |  |  |  |  |  |  |  |  |  |  |  |  |  |  | Papp at 4 h, 200 µM [22]: 10.3 ×10⁻⁶ cm/s
C[C@H](CCC(=O)NN=C(c1ccccn1)c1ccccn1)[C@H]1CC[C@H]2[C@@H]3[C@H](O)C[C@@H]4C[C@H](O)CC[C@]4(C)[C@H]3C[C@H](O)[C@]12C | inactive |  | inactive | Active | Active | Active | Active |  | Active | Non-Toxic | Active | Active | Active | Active | 
C[C@H](CCC(=O)N/N=C/c1ccc2ccccc2n1)[C@H]1CC[C@H]2[C@@H]3[C@H](O)C[C@@H]4C[C@H](O)CC[C@]4(C)[C@H]3C[C@H](O)[C@]12C | inactive | Active | inactive | inactive | Active | Active | inactive | Active | Active | Non-Toxic | Active | Active | Active | Active | 
COc1ccc(Nc2c(NN=C(c3ccccn3)c3ccccn3)c(=O)c2=O)cc1 | inactive | Active | inactive | Active | inactive | Active | Active | Active | Active | Non-Toxic |  |  |  |  | Activity (SH-SY5Y [7]): Toxic; Activity (SH-SY5Y [10]): Toxic
